The target of experiment [1] is T1, USP11 (Homo sapiens, UniProt P51784).
T1 construct: biotin-labelled for BLI
Briefly: bio-layer interferometry (Octet), biotinylated protein on SSA sensors, […] global fit. Type of experiment: binding. The following applies: PBS-T, 30 °C; RSL3 6.81-218 μM; unreliable (KD above the highest concentration tested); protein refolded from 8 M urea.

In experiment [2] the target is T2, USP11 (Homo sapiens, UniProt P51784, Q402E/Y833E).
T2 construct: biotin-labelled for BLI
The experiment is described as above. Type of experiment: binding.

T1 sequence (P51784 whole entry): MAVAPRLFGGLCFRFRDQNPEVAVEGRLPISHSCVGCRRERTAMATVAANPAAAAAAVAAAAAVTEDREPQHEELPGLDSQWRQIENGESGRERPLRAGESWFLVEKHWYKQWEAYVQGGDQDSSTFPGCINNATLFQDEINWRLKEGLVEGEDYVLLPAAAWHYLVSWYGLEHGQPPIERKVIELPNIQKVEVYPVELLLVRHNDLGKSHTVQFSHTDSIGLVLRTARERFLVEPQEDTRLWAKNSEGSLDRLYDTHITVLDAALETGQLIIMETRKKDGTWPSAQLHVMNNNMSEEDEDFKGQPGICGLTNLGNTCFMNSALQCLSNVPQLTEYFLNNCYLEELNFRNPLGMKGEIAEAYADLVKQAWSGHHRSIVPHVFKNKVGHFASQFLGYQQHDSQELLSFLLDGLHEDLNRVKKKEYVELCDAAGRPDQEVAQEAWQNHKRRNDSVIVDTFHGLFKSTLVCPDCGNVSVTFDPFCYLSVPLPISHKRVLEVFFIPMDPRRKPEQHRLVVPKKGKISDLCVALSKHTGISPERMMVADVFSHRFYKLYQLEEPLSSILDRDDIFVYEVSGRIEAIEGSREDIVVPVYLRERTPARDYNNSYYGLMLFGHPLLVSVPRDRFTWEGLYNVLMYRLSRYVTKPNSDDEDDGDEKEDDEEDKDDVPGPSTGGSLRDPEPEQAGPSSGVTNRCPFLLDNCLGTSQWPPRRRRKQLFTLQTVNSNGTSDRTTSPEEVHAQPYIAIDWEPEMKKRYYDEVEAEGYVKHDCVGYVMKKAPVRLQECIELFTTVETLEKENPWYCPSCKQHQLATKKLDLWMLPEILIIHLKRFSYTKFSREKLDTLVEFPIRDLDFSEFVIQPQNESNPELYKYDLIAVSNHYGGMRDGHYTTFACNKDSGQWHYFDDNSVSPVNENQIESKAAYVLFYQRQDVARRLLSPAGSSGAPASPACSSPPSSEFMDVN
T2 sequence (P51784 whole entry Q402E/Y833E): as the sequence (P51784 whole entry) above, with Q402E, Y833E counted along it

As to `COC(=O)c1ccc([C@H]2c3[nH]c4ccccc4c3C[C@H](C(=O)OC)N2C(=O)CCl)cc1` [RSL3], the KD on USP11 [1] came to 340 µM. The same molecule came in with a Kd on USP11 [2] of 190 µM.

The term KD denotes a measure of binding affinity in units of concentration. A higher KD goes with lower affinity. As a reminder, the Kd is the free concentration of one partner at which half of the binding sites on the other are occupied at equilibrium, for simple one-to-one binding. Read a high Kd as weaker binding.

The values above are taken from PMC9658295, “The RSL3 Induction of KLK Lung Adenocarcinoma Cell Ferroptosis by Inhibition of USP11 Activity and the NRF2-GSH Axis” (Cancers, 2022).
